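Values below derive from 48-hour exposures of cells grown in 96-well plates, with endpoints linearly interpolated between the two concentrations bracketing the appropriate inhibition level. The concentration for full growth arrest is given as TGI.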 Where a SMILES comes first, the peptide text is derived from it. [ ]: non-standard residue; d: D form. The star is where a group is joined. ξ: configuration not given here. ξD = NC(CC(=O)O)C(=O)O; Ac3c = NC1(C(=O)O)CC1; Boc = CC(C)(C)OC(=O)*; OBn = c1ccc(CO*)cc1
Assays:
Assay in all cases: growth of human tumour cells (NCI), 48 h
786-0 renal = system: 786-0 renal
ACHN renal = system: ACHN renal
RXF 393 renal = system: RXF 393 renal
SK-OV-3 ovarian = system: SK-OV-3 ovarian
OVCAR-8 ovarian = system: OVCAR-8 ovarian
U251 CNS = system: U251 CNS
M14 melanoma = system: M14 melanoma
HCT-116 colon = system: HCT-116 colon
TK-10 renal = system: TK-10 renal
MALME-3M melanoma = system: MALME-3M melanoma

| SMILES | TGI (786-0 renal) | TGI (ACHN renal) | TGI (RXF 393 renal) | TGI (SK-OV-3 ovarian) | TGI (OVCAR-8 ovarian) | TGI (U251 CNS) | TGI (M14 melanoma) | TGI (HCT-116 colon) | TGI (TK-10 renal) | TGI (MALME-3M melanoma) |
| --- | --- | --- | --- | --- | --- | --- | --- | --- | --- | --- |
| CC(NC(=O)OCc1ccccc1)NC(=O)C(CC(=O)OC(C)(C)C)NC(=O)OC(C)(C)C (stereo not given) | > 100 µM | > 100 µM | > 100 µM | > 100 µM | > 100 µM | > 100 µM | > 100 µM | > 100 µM | > 100 µM | > 100 µM |
| O=C(c1ccccc1)c1c(C(F)(F)F)n([O-])c2cc(Cl)c(Cl)cc2[n+]1=O | 0.959 µM | 2.03 µM | 5.52 µM | 8.99 µM | 20.9 µM | 2.71 µM | 3.2 µM | 0.989 µM | 2.56 µM | 5.33 µM |
| O=C1CCCC2=C1C(c1ccc3c(c1)OCO3)Nc1ccc3ccccc3c12 (stereo not given) | > 100 µM | 65.7 µM | > 100 µM | > 100 µM | > 100 µM | > 100 µM | > 100 µM | > 100 µM | > 100 µM | > 100 µM |
| CC(C)[C@H]1NC(=O)[C@H]2N=C(O[C@@H]2C)[C@@H]2CCCN2C(=O)[C@H](Cc2ccccc2)NC(=O)[C@@H]2CSC(=N2)[C@@H](Cc2ccccc2)NC(=O)[C@@H]2CSC1=N2 | > 100 µM | > 100 µM | > 100 µM | > 100 µM | > 100 µM | > 100 µM | > 100 µM | > 100 µM | > 100 µM | > 100 µM |
| COc1cc(/C=C2\N=C(c3ccccc3)N(/N=C3\C(=O)Nc4ccccc43)C2=O)cc(OC)c1OC | > 100 µM | > 100 µM | > 100 µM | > 100 µM | > 100 µM | > 100 µM | > 100 µM | > 100 µM | > 100 µM | > 100 µM |
| Cc1cn(CC2=NCCCN2)c(=O)[nH]c1=O | > 100 µM | > 100 µM | > 100 µM | > 100 µM | > 100 µM | > 100 µM | > 100 µM | > 100 µM | > 100 µM | > 100 µM |
| N/N=C1/C(=N/O)CCc2nonc21 | > 100 µM | > 100 µM | > 100 µM | > 100 µM | > 100 µM | > 100 µM | > 100 µM | > 100 µM | > 100 µM | > 100 µM |
| O=C(CN1CCCCC1)c1ccc2c(c1)Sc1ccccc1O2 | 33.2 µM | 27.7 µM | 21 µM | 29.6 µM | 33.2 µM | 39.6 µM | 28.5 µM | 35 µM | 44.6 µM | 33.4 µM |
| COC(=O)C1(NC(=O)C(CC(=O)OCc2ccccc2)NC(=O)OC(C)(C)C)CC1 (stereo not given) (Boc-[ξD](OBn)-[Ac3c]-OMe) | > 100 µM | > 100 µM | > 100 µM | 77.4 µM | > 100 µM | > 100 µM | > 100 µM | > 100 µM | > 100 µM | > 100 µM |
| CC(=Nc1c2ccccc2nc2ccccc12)N(C)C | > 100 µM | 76.4 µM | 78.1 µM | > 100 µM | 52.4 µM | 72 µM | 25.4 µM | 27.6 µM | > 100 µM | > 100 µM |
| O=C(/C=C/c1ccc(-c2ccccc2)cc1)NCc1ccc(C(=O)NCCc2c[nH]c3ccccc23)cc1 | 26.7 µM | > 100 µM | > 100 µM | 35.2 µM | > 100 µM | > 100 µM | > 100 µM | > 100 µM | 86.8 µM | > 100 µM |
| COc1ccc(/C=C(\C(=C/c2ccc(OC)cc2)[N+](=O)[O-])[N+](=O)[O-])cc1 | 4.96 µM | 17.1 µM | 4.33 µM | 32.4 µM | 5.97 µM | 8.52 µM | 18.2 µM | 24.8 µM | 12.2 µM | 11.9 µM |
| COc1ccc2c(c1)nc1n2C(N)=Nc2ccccc2S1 | > 34.1 µM | > 100 µM | > 78.3 µM | > 100 µM | > 82.1 µM | > 100 µM | > 80.6 µM | > 100 µM | > 100 µM | > 100 µM |
| N#CC(C#N)=Cc1c(O)ccc2ccccc12 | 33 µM | 23.9 µM | 31.2 µM | 34.7 µM | 36.4 µM | 32.5 µM | 28.3 µM | 30.9 µM | 32.2 µM | 39.8 µM |
| O=c1[nH]c2ccccc2nc1/C=C(\O)C(F)F | > 100 µM | > 100 µM | > 100 µM | > 100 µM | > 100 µM | > 100 µM | > 100 µM | > 100 µM | > 100 µM | > 100 µM |
| COc1ccc(-c2nc(-c3cc4ccccc4oc3=O)cs2)cc1 | > 100 µM | > 100 µM | > 100 µM | 91.6 µM | 56.3 µM | 47.4 µM | > 100 µM | > 100 µM | > 100 µM | > 100 µM |
| O=C(NC1(C(=O)NNc2nnc(-c3ccccc3)c(-c3ccccc3)n2)C(c2ccccc2)C(c2ccccc2)=NN1c1ccccc1)c1ccccc1 (stereo not given) | > 100 µM | > 100 µM | > 100 µM | > 100 µM | > 100 µM | > 100 µM | > 100 µM | > 100 µM | > 100 µM | > 100 µM |
| COc1ccc(/C=C2\CC3C4CC=C5C[C@@H](O)CC[C@]5(C)C4CC[C@]3(C)\C2=N\O)cc1OC (stereo not given in full) | > 100 µM | 36.9 µM | > 100 µM | > 100 µM | > 100 µM | > 100 µM | > 100 µM | > 100 µM | > 100 µM | > 100 µM |
| COC(=O)c1ccc(CCc2cc(O)ccc2O)cc1 | 18.4 µM | 37.9 µM | 20.9 µM | > 78 µM | > 52.7 µM | 33.2 µM | 27.8 µM | 24 µM | 45.8 µM | 22.5 µM |
